Measured values reported in US10167262B2, “Herbicidal substituted 3-arylpyrazoles” (FMC CORPORATION, priority 2014, dated 2019).

Experiments:
Type in all cases: in vivo
[1] = test system: barnyardgrass (Echinochloa crus-galli); assay: Test A pre-/postemergence greenhouse herbicide test, visual injury rating 0-100
Outline: (§1)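 Seeds sown in loam soil–sand blend; preemergence directed soil spray and, simultaneously, postemergence spray on plants 2 to 10 cm tall at one- to two-leaf stage. Compounds formulated in non-phytotoxic solvent mixture with surfactant. Injury rated visually versus untreated controls after ~10 days in greenhouse.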

[2] = test system: corn (Zea mays); assay: as above
Outline: as §1

[3] = test system: giant foxtail (Setaria faberii); assay: as above
Outline: as §1

[4] = test system: large (Lg) crabgrass (Digitaria sanguinalis); assay: as above
Outline: as §1

[5] = test system: morningglory (Ipomoea spp.); assay: as above
Outline: as §1

[6] = test system: pigweed (Amaranthus retroflexus); assay: as above
Outline: as §1

[7] = test system: velvetleaf (Abutilon theophrasti); assay: as above
Outline: as §1

[8] = test system: wheat (Triticum aestivum); assay: as above
Outline: as §1

[9] = test system: barnyardgrass (Echinochloa crus-galli); assay: Test B flooded paddy test, plant response rating 0-100; conditions: Flood, 250 g ai/ha; scale 0 to 100 (0 no effect, 100 complete control); 13 to 15 days
Outline: (§2)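 In-water treatment: compound dosed into 3 cm flood over soil, water level unchanged throughout. Controls run alongside; visual assessment at day 13–15.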

[10] = test system: ducksalad (Heteranthera limosa); assay: as above; conditions: Flood, 250 g ai/ha; scale 0 to 100 (0 no effect, 100 complete control); 13 to 15 days
Outline: as §2

[11] = test system: rice (Oryza sativa); assay: as above; conditions: Flood, 250 g ai/ha; scale 0 to 100 (0 no effect, 100 complete control); 13 to 15 days
Outline: as §2

[12] = test system: sedge, umbrella (small-flower umbrella sedge, Cyperus difformis); assay: as above; conditions: Flood, 250 g ai/ha; scale 0 to 100 (0 no effect, 100 complete control); 13 to 15 days
Outline: as §2

Compound | Plant response rating, Barnyardgrass [9] | Plant response rating, Ducksalad [10] | Plant response rating, Rice [11] | Plant response rating, Sedge, Umbrella [12] | Plant response rating (0 to 100 scale), Barnyardgrass ([1]; Postemergence, 125 g ai/ha) | Plant response rating (0 to 100 scale), Barnyardgrass ([1]; Postemergence, 500 g ai/ha) | Barnyardgrass plant response rating (0 = no effect, 100 = complete control) ([1]; Preemergence, 125 g ai/ha) | Plant response rating (0 to 100 scale), Barnyardgrass ([1]; Preemergence, 500 g ai/ha) | Plant response rating (0 to 100 scale), Corn ([2]; Postemergence, 125 g ai/ha) | Plant response rating (0 to 100 scale), Corn ([2]; Postemergence, 500 g ai/ha) | Corn plant response rating (0 = no effect, 100 = complete control) ([2]; Preemergence, 125 g ai/ha) | Plant response rating (0 to 100 scale), Corn ([2]; Preemergence, 500 g ai/ha) | Plant response rating (0 to 100 scale), Foxtail, Giant ([3]; Postemergence, 125 g ai/ha) | Plant response rating (0 to 100 scale), Foxtail, Giant ([3]; Postemergence, 500 g ai/ha) | Foxtail, Giant plant response rating (0 = no effect, 100 = complete control) ([3]; Preemergence, 125 g ai/ha) | Plant response rating (0 to 100 scale), Foxtail, Giant ([3]; Preemergence, 500 g ai/ha) | Plant response rating (0 to 100 scale), Crabgrass, Large ([4]; Postemergence, 125 g ai/ha) | Plant response rating (0 to 100 scale), Crabgrass, Large ([4]; Postemergence, 500 g ai/ha) | Plant response rating (0 to 100 scale), Crabgrass, Large ([4]; Preemergence, 500 g ai/ha) | Plant response rating (0 to 100 scale), Morningglory ([5]; Postemergence, 125 g ai/ha) | also measured
CCn1cc(C(=O)c2ccccc2)c(-c2cc(F)cc(Br)c2)n1 [Compound 10] | 0 | 0 | 0 | 0 | – | – | – | – | – | – | – | – | – | – | – | – | – | – | – | – | Plant response rating (0 to 100 scale), Barnyardgrass ([1]; Postemergence, 1000 g ai/ha): 0; Plant response rating (0 to 100 scale), Barnyardgrass ([1]; Preemergence, 1000 g ai/ha): 0; Plant response rating (0 to 100 scale), Corn ([2]; Postemergence, 1000 g ai/ha): 0; Plant response rating (0 to 100 scale), Corn ([2]; Preemergence, 1000 g ai/ha): 0; Plant response rating (0 to 100 scale), Foxtail, Giant ([3]; Postemergence, 1000 g ai/ha): 0; Plant response rating (0 to 100 scale), Foxtail, Giant ([3]; Preemergence, 1000 g ai/ha): 0; Plant response rating (0 to 100 scale), Crabgrass, Large ([4]; Postemergence, 1000 g ai/ha): 0; Plant response rating (0 to 100 scale), Crabgrass, Large ([4]; Preemergence, 1000 g ai/ha): 0; Plant response rating (0 to 100 scale), Morningglory ([5]; Postemergence, 1000 g ai/ha): 0; Plant response rating (0 to 100 scale), Morningglory ([5]; Preemergence, 1000 g ai/ha): 0; Plant response rating (0 to 100 scale), Pigweed ([6]; Postemergence, 1000 g ai/ha): 90; Plant response rating (0 to 100 scale), Pigweed ([6]; Preemergence, 1000 g ai/ha): 100; Plant response rating (0 to 100 scale), Velvetleaf ([7]; Postemergence, 1000 g ai/ha): 90; Plant response rating (0 to 100 scale), Velvetleaf ([7]; Preemergence, 1000 g ai/ha): 90; Plant response rating (0 to 100 scale), Wheat ([8]; Postemergence, 1000 g ai/ha): 0; Plant response rating (0 to 100 scale), Wheat ([8]; Preemergence, 1000 g ai/ha): 0
O=C(c1cncc(F)c1)c1c[nH]nc1-c1cc(F)cc(Cl)c1 [Compound 22] | 0 | 0 | 0 | 0 | 0 | 0 | 0 | 0 | 0 | 0 | 0 | 0 | 0 | 0 | 0 | 0 | 0 | 0 | 0 | 0 | Crabgrass, Large plant response rating (0 = no effect, 100 = complete control) ([4]; Preemergence, 125 g ai/ha): 0; Plant response rating (0 to 100 scale), Morningglory ([5]; Postemergence, 500 g ai/ha): 0; Morningglory plant response rating (0 = no effect, 100 = complete control) ([5]; Preemergence, 125 g ai/ha): 0; Plant response rating (0 to 100 scale), Morningglory ([5]; Preemergence, 500 g ai/ha): 0; Plant response rating (0 to 100 scale), Pigweed ([6]; Postemergence, 125 g ai/ha): 70; Plant response rating (0 to 100 scale), Pigweed ([6]; Postemergence, 500 g ai/ha): 100; Pigweed plant response rating (0 = no effect, 100 = complete control) ([6]; Preemergence, 125 g ai/ha): 60; Plant response rating (0 to 100 scale), Pigweed ([6]; Preemergence, 500 g ai/ha): 100; Plant response rating (0 to 100 scale), Velvetleaf ([7]; Postemergence, 125 g ai/ha): 60; Plant response rating (0 to 100 scale), Velvetleaf ([7]; Postemergence, 500 g ai/ha): 80; Velvetleaf plant response rating (0 = no effect, 100 = complete control) ([7]; Preemergence, 125 g ai/ha): 30; Plant response rating (0 to 100 scale), Velvetleaf ([7]; Preemergence, 500 g ai/ha): 60; Plant response rating (0 to 100 scale), Wheat ([8]; Postemergence, 125 g ai/ha): 0; Plant response rating (0 to 100 scale), Wheat ([8]; Postemergence, 500 g ai/ha): 0; Wheat plant response rating (0 = no effect, 100 = complete control) ([8]; Preemergence, 125 g ai/ha): 0; Plant response rating (0 to 100 scale), Wheat ([8]; Preemergence, 500 g ai/ha): 0
O=C(c1cncc(F)c1)c1c[nH]nc1-c1cc(F)cc(F)c1 [Compound 23] | 0 | 0 | 0 | 0 | 0 | 0 | 0 | 0 | 0 | 0 | 0 | 0 | 0 | 0 | 0 | 0 | 0 | 0 | 0 | 0 | Plant response rating (0 to 100 scale), Morningglory ([5]; Postemergence, 500 g ai/ha): 0; Morningglory plant response rating (0 = no effect, 100 = complete control) ([5]; Preemergence, 125 g ai/ha): 0; Plant response rating (0 to 100 scale), Morningglory ([5]; Preemergence, 500 g ai/ha): 0; Plant response rating (0 to 100 scale), Pigweed ([6]; Postemergence, 125 g ai/ha): 50; Plant response rating (0 to 100 scale), Pigweed ([6]; Postemergence, 500 g ai/ha): 60; Pigweed plant response rating (0 = no effect, 100 = complete control) ([6]; Preemergence, 125 g ai/ha): 70; Plant response rating (0 to 100 scale), Pigweed ([6]; Preemergence, 500 g ai/ha): 100; Plant response rating (0 to 100 scale), Velvetleaf ([7]; Postemergence, 125 g ai/ha): 0; Plant response rating (0 to 100 scale), Velvetleaf ([7]; Postemergence, 500 g ai/ha): 40; Velvetleaf plant response rating (0 = no effect, 100 = complete control) ([7]; Preemergence, 125 g ai/ha): 60; Plant response rating (0 to 100 scale), Velvetleaf ([7]; Preemergence, 500 g ai/ha): 90; Plant response rating (0 to 100 scale), Wheat ([8]; Postemergence, 125 g ai/ha): 0; Plant response rating (0 to 100 scale), Wheat ([8]; Postemergence, 500 g ai/ha): 0; Wheat plant response rating (0 = no effect, 100 = complete control) ([8]; Preemergence, 125 g ai/ha): 0; Plant response rating (0 to 100 scale), Wheat ([8]; Preemergence, 500 g ai/ha): 0
CCn1cc(C(=O)c2cccs2)c(-c2cc(F)cc(Cl)c2)n1 [Compound 24] | 0 | 0 | 0 | 0 | 0 | 10 | 0 | 0 | 0 | 0 | 0 | 0 | 0 | 10 | 0 | 0 | 10 | 20 | 20 | 0 | Crabgrass, Large plant response rating (0 = no effect, 100 = complete control) ([4]; Preemergence, 125 g ai/ha): 0; Plant response rating (0 to 100 scale), Morningglory ([5]; Postemergence, 500 g ai/ha): 10; Morningglory plant response rating (0 = no effect, 100 = complete control) ([5]; Preemergence, 125 g ai/ha): 0; Plant response rating (0 to 100 scale), Morningglory ([5]; Preemergence, 500 g ai/ha): 0; Plant response rating (0 to 100 scale), Pigweed ([6]; Postemergence, 125 g ai/ha): 80; Plant response rating (0 to 100 scale), Pigweed ([6]; Postemergence, 500 g ai/ha): 100; Pigweed plant response rating (0 = no effect, 100 = complete control) ([6]; Preemergence, 125 g ai/ha): 60; Plant response rating (0 to 100 scale), Pigweed ([6]; Preemergence, 500 g ai/ha): 80; Plant response rating (0 to 100 scale), Velvetleaf ([7]; Postemergence, 125 g ai/ha): 40; Plant response rating (0 to 100 scale), Velvetleaf ([7]; Postemergence, 500 g ai/ha): 90; Velvetleaf plant response rating (0 = no effect, 100 = complete control) ([7]; Preemergence, 125 g ai/ha): 0; Plant response rating (0 to 100 scale), Velvetleaf ([7]; Preemergence, 500 g ai/ha): 0; Plant response rating (0 to 100 scale), Wheat ([8]; Postemergence, 125 g ai/ha): 0; Plant response rating (0 to 100 scale), Wheat ([8]; Postemergence, 500 g ai/ha): 0; Wheat plant response rating (0 = no effect, 100 = complete control) ([8]; Preemergence, 125 g ai/ha): 0; Plant response rating (0 to 100 scale), Wheat ([8]; Preemergence, 500 g ai/ha): 0
